pIC50: −log10 of the molar value.
How the values were obtained:
[1] = biological target: pseudo-kinase domain (JH2, amino-acids 536-812) of human V617F mutant JAK2 (Homo sapiens (Human), UniProt O60674, F794H/V617F/W659A/W777A); assay: JAK2 LanthaScreen JH2-V617F Binding Assay; details: JAK2 JH2-V617F 0.26 nM, 50 nM tracer, 1 hour at 25° C.; read-out: JH2 BIND V617F IC50
In short: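 TR-FRET tracer displacement: 0.26 nM protein, 50 nM tracer, 0.25 nM SA-Tb, 50 mM Tris pH 7.5, 10 mM MgCl2, 5 mM DTT; 1 h, 25° C. NSB = 2 mM ATP. IC50, 4-parameter curve.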

[2] = biological target: catalytic domain (JH1, amino acids 808-1132) of human JAK2 (Homo sapiens (Human), UniProt O60674); assay: JAK2 HTRF Enzyme Activity Assay; assay type: biochemical; details: JAK2 0.015 nM, ATP (30 μM or 1 mM), 60 minutes at 25° C.
[3] = biological target: pseudo-kinase domain (JH2, amino-acids 536-812) of human Wild Type JAK2 (Homo sapiens (Human), UniProt O60674, F794H/W659A/W777A); assay: JAK2 LanthaScreen JH2-WT Binding Assay; details: JAK2 JH2-WT 0.145 nM, 50 nM tracer, 1 hour at 25° C.; read-out: JH2 BIND WT IC50
In short: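 Biotinylated His-Avi-tagged JH2 construct carrying W659A/W777A/F794H surface mutations, 0.145 nM, incubated 1 h at 25° C with compound, 50 nM fluorescent JH2 tracer and 0.25 nM streptavidin-Tb in pH 7.5 Tris buffer. Non-specific binding defined with 2 mM ATP. TR-FRET read; IC50 from four-parameter fit.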

[4] = biological target: catalytic domain (JH1, amino acids 826-1132) of human JAK2 (Homo sapiens (Human), UniProt O60674); assay: JAK2 LanthaScreen JH1 Binding Assay; details: JAK2 JH1 1.5 nM, 50 nM tracer, 2 hours at 25° C.; read-out: JH1 BIND IC50
In short: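 Reaction held 1.5 nM biotinylated FLAG-JAK2 JH1, 50 nM tracer and 0.5 nM streptavidin-Tb in pH 7.5 Tris buffer; 2 mM ATP defined nonspecific binding.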

pseudo-kinase domain (JH2, amino-acids 536-812) of human V617F mutant JAK2, sequence (O60674 536-812 V617F/W659A/W777A/F794H): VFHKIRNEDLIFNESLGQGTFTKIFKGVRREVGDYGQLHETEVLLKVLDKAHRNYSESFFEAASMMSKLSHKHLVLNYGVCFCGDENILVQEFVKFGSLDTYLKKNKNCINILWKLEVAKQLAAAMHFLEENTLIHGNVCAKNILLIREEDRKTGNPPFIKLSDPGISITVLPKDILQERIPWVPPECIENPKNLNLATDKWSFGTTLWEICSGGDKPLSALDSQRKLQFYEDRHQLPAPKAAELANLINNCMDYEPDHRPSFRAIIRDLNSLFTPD
catalytic domain (JH1, amino acids 808-1132) of human JAK2, sequence (O60674 808-1132): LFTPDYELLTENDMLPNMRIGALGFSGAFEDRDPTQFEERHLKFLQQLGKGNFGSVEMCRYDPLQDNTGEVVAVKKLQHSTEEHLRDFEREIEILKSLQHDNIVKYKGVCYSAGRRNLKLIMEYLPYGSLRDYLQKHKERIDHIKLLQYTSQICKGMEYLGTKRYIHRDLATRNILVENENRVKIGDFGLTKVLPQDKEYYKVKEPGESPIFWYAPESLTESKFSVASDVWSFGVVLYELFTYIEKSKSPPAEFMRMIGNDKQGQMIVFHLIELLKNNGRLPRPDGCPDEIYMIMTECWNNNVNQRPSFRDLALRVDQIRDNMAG
catalytic domain (JH1, amino acids 826-1132) of human JAK2, sequence (O60674 826-1132): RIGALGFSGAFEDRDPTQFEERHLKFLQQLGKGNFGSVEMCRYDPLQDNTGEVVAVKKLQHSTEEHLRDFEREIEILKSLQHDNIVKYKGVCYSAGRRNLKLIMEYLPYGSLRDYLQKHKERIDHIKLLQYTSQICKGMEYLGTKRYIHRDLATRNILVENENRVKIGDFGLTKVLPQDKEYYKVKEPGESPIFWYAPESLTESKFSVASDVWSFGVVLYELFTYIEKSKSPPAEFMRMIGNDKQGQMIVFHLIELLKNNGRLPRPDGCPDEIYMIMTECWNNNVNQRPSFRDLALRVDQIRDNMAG
pseudo-kinase domain (JH2, amino-acids 536-812) of human Wild Type JAK2, sequence (O60674 536-812 W659A/W777A/F794H): as the sequence (O60674 536-812 V617F/W659A/W777A/F794H) above, with F82V counted along it

Compound | pIC50 [1] | pIC50 [2] | pIC50 [3] | pIC50 [4]
CN(C)C(=O)c1ccc(-c2c(-c3cnn(C)c3)[nH]c3ncc4c(cc(NC5CCC(CC#N)CC5)c(=O)n4C)c23)cc1 (stereo not shown) [Example 38, 4-(8-((4-(cyanomethyl)cyclohexyl)amino)-6-methyl-2-(1-methyl-1H-pyrazol-4-yl)-7-oxo-6,7-dihydro-3H-pyrrolo[3,2-f][1,7]naphthyridin-1-yl)-N,N-dimethylbenzamide] | ≥ 7.00 | ≥ 7.00 | ≥ 7.00 | 6.30 to 7.00
CN(C)C(=O)c1ccc(-c2c(-c3cnn(C)c3)[nH]c3ncc4c(cc(N5CCC(S(C)(=O)=O)CC5)c(=O)n4C)c23)cc1 [Example 39, N,N-dimethyl-4-(6-methyl-2-(1-methyl-1H-pyrazol-4-yl)-8-(4-(methylsulfonyl)piperidin-1-yl)-7-oxo-6,7-dihydro-3H-pyrrolo[3,2-f][1,7]naphthyridin-1-yl)benzamide] | ≥ 7.00 | 6.30 to 7.00 | ≥ 7.00 | 6.30 to 7.00
COCCS(=O)(=O)C1CCN(c2cc3c4c(-c5ccc(C(=O)N(C)C)cc5)c(-c5cnn(C)c5)[nH]c4ncc3n(C)c2=O)CC1 [Example 40, 4-(8-(4-((2-Methoxyethyl)sulfonyl)piperidin-1-yl)-6-methyl-2-(1-methyl-1H-pyrazol-4-yl)-7-oxo-6,7-dihydro-3H-pyrrolo[3,2-f][1,7]naphthyridin-1-yl)-N,N-dimethylbenzamide] | 6.30 to 7.00 | 5.00 to 6.00 | 6.30 to 7.00 | 5.00 to 6.00
CN(C)C(=O)c1ccc(-c2c(-c3cnn(C)c3)[nH]c3ncc4c(cc(N5CCC6(CCOC6)CC5)c(=O)n4C)c23)cc1 [Example 41, N,N-dimethyl-4-(6-methyl-2-(1-methyl-1H-pyrazol-4-yl)-7-oxo-8-(2-oxa-8-azaspiro[4.5]decan-8-yl)-6,7-dihydro-3H-pyrrolo[3,2-f][1,7]naphthyridin-1-yl)benzamide] | 6.00 to 6.30 | 5.00 to 6.00 | 6.30 to 7.00 | 5.00 to 6.00
COc1ccc(-c2c(-c3cnn(C)c3)[nH]c3ncc4c(cc(C(=O)N(C)C)c(=O)n4C)c23)cc1 [Example 42, 1-(4-Methoxyphenyl)-N,N,6-trimethyl-2-(1-methyl-1H-pyrazol-4-yl)-7-oxo-6,7-dihydro-3H-pyrrolo[3,2-f][1,7]naphthyridine-8-carboxamide] | ≥ 7.00 | 5.00 to 6.00 | ≥ 7.00 | 5.00 to 6.00
CN(C)C(=O)c1cc2c3c(-c4ccc5c(cnn5C)c4)c(-c4cnn(C)c4)[nH]c3ncc2n(C)c1=O [Example 43, N,N,6-trimethyl-1-(1-methyl-1H-indazol-5-yl)-2-(1-methyl-1H-pyrazol-4-yl)-7-oxo-6,7-dihydro-3H-pyrrolo[3,2-f][1,7]naphthyridine-8-carboxamide] | ≥ 7.00 | 5.00 to 6.00 | ≥ 7.00 | 5.00 to 6.00
CN(C)C(=O)c1cc2c3c(-c4ccc(C5(C#N)CC5)cc4)c(-c4cnn(C)c4)[nH]c3ncc2n(C)c1=O [Example 44, 1-(4-(1-cyanocyclopropyl)phenyl)-N,N,6-trimethyl-2-(1-methyl-1H-pyrazol-4-yl)-7-oxo-6,7-dihydro-3H-pyrrolo[3,2-f][1,7]naphthyridine-8-carboxamide] | ≥ 7.00 | 5.00 to 6.00 | ≥ 7.00 | 5.00 to 6.00

Reference: patent publication US11767323B2, “Tricyclic pyridone compounds as JAK2 V617F inhibitors” (Incyte Corporation, priority 2020, dated 2023)
